From US20260138978A1, “POSITIVE ALLOSTERIC MODULATORS OF THE MUSCARINIC ACETYLCHOLINE RECEPTOR M1” (Vanderbilt University, priority 2022, published 2026)

Key:
human mAChRM1 [1] = biological target: T1, human mAChRM1 (Homo sapiens, UniProt P11229); experiment: mAChR M1 cell-based functional assay (calcium mobilization), positive allosteric modulator activity: increase in the EC20 acetylcholine response; details: for Emax: PAM mode; for EC50 / PAM Activity Human M1 EC50: increase in the EC20 acetylcholine response; for EC50: read-out: PAM Activity Human M1 EC50
T1 construct: host or cells: CHO-K1
T1 sequence (P11229 1-460): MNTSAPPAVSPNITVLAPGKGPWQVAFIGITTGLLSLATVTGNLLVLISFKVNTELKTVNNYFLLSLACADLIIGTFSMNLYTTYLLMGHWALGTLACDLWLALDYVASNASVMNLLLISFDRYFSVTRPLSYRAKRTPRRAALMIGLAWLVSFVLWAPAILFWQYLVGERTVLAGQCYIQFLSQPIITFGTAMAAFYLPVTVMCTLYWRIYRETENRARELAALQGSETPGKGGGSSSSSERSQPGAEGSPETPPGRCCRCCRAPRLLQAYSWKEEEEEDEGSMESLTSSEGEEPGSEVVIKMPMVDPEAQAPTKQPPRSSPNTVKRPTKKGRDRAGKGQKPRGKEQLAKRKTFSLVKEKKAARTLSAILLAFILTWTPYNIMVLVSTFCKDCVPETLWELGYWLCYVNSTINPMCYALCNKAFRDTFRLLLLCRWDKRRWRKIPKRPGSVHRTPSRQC
Method in brief: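 CHO-K1 cells stably expressing human M1, loaded with Fluo-4 AM; calcium flux recorded on FDSS at 1 Hz over 300 s following compound addition. PAM activity is the concentration-dependent increase of an EC20 acetylcholine response; EC50 and Emax from four-parameter logistic fits of 11-point, 1:3 concentration series.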

human mAChRM1 [2] = biological target: T1, human mAChRM1; experiment: mAChR M1 cell-based functional assay (calcium mobilization), agonist activity upon compound addition, Emax relative to acetylcholine maximum; details: for Agonist Activity Human M1 EC50 / EC50: calcium mobilization upon compound addition; for Emax: relative to the maximum for acetylcholine
Method in brief: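 CHO-K1 cells stably expressing human M1 were loaded with Fluo-4 AM for 50 min at 37 °C. Compound was added 4 s into a 300 s FDSS read at 1 Hz, over 11-point 1:3 dilution curves. Agonism was taken as a concentration-dependent rise in calcium fluorescence ratio, with Emax expressed relative to the acetylcholine maximum from four-parameter logistic fits.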

In the case of `Cc1cc(-c2cc(C(C)(C)O)c3nn(C)cc3c2)ccc1CN1Cc2ncccc2C1=O` [Compound 35, 6-(4-(7-(2-hydroxypropan-2-yl)-2-methyl-2H-indazol-5-yl)-2-methylbenzyl)-6,7-dihydro-5H-pyrrolo[3,4-b]pyridin-5-one], the Emax (human mAChRM1 [1]) is reported as 68%, the EC50 (human mAChRM1 [1]) is reported as 958 nM and the “Agonist Activity Human M1 EC50” value (human mAChRM1 [2]) is reported as “inactive”.
`Cn1cc2cc(-c3ccc(CN4Cc5ncccc5C4=O)cc3)cc(C(C)(C)O)c2n1` [Compound 36, 6-(4-(7-(2-hydroxypropan-2-yl)-2-methyl-2H-indazol-5-yl)benzyl)-6,7-dihydro-5H-pyrrolo[3,4-b]pyridin-5-one] was tested, and the Emax (human mAChRM1 [1]) was 67%, the EC50 (human mAChRM1 [1]) was 962 nM and the “Agonist Activity Human M1 EC50” value (human mAChRM1 [2]) was “inactive”.
For `CC(C)(O)c1ccc(-c2cc(F)c(CN3Cc4ncccc4C3=O)c(F)c2)c2ncccc12` [Compound 37, 6-(2,6-difluoro-4-(5-(2-hydroxypropan-2-yl)quinolin-8-yl)benzyl)-6,7-dihydro-5H-pyrrolo[3,4-b]pyridin-5-one], the “PAM Activity Human M1 EC50” value (human mAChRM1 [1]) was “inactive” and the “Agonist Activity Human M1 EC50” value (human mAChRM1 [2]) was “inactive”.
With `CC(C)(O)c1ccc(-c2cc(F)c(CN3Cc4ncccc4C3=O)c(F)c2)c2cccnc12` [Compound 38, 6-(2,6-difluoro-4-(8-(2-hydroxypropan-2-yl)quinolin-5-yl)benzyl)-6,7-dihydro-5H-pyrrolo[3,4-b]pyridin-5-one] the Emax (human mAChRM1 [1]) was 59%, the EC50 (human mAChRM1 [1]) was 4310 nM and the “Agonist Activity Human M1 EC50” value (human mAChRM1 [2]) was “inactive”.
An Emax (human mAChRM1 [1]) of 72%, an EC50 (human mAChRM1 [1]) of 472 nM and an EC50 (human mAChRM1 [2]) of at least 10000 nM were found for `CC(C)(O)c1cc(-c2cc(F)c(CN3Cc4ncccc4C3=O)c(F)c2)cc2cccnc12` [Compound 39, 6-(2,6-difluoro-4-(8-(2-hydroxypropan-2-yl)quinolin-6-yl)benzyl)-6,7-dihydro-5H-pyrrolo[3,4-b]pyridin-5-one] in this work. The Emax (human mAChRM1 [2]) was 8%.
In the case of `Cn1cc(-c2cc(F)c(CN3Cc4ncccc4C3=O)c(F)c2)c2ccc(C(C)(C)O)cc21` [Compound 40, 6-(2,6-difluoro-4-(6-(2-hydroxypropan-2-yl)-1-methyl-1H-indol-3-yl)benzyl)-6,7-dihydro-5H-pyrrolo[3,4-b]pyridin-5-one], the Emax (human mAChRM1 [1]) is reported as 73%, the EC50 (human mAChRM1 [1]) is reported as 2190 nM and the “Agonist Activity Human M1 EC50” value (human mAChRM1 [2]) is reported as “inactive”.
An Emax (human mAChRM1 [1]) of 67%, an EC50 (human mAChRM1 [1]) of 422 nM and an EC50 (human mAChRM1 [2]) of at least 10000 nM were found for `Cn1cc2cc(-c3cc(F)c(CN4Cc5ncccc5C4=O)c(Cl)c3)cc(C(C)(C)O)c2n1` [Compound 41, 6-(2-chloro-6-fluoro-4-(7-(2-hydroxypropan-2-yl)-2-methyl-2H-indazol-5-yl)benzyl)-6,7-dihydro-5H-pyrrolo[3,4-b]pyridin-5-one] in this work. For the same molecule, the Emax (human mAChRM1 [2]) was 12%.
With `CC(C)(O)c1cncc(-c2cc(F)c(CN3Cc4ncccc4C3=O)c(F)c2)c1` [Compound 42, 6-(2,6-difluoro-4-(5-(2-hydroxypropan-2-yl)pyridin-3-yl)benzyl)-6,7-dihydro-5H-pyrrolo[3,4-b]pyridin-5-one] the Emax (human mAChRM1 [1]) was 48%, the EC50 (human mAChRM1 [1]) was at least 10000 nM and the “Agonist Activity Human M1 EC50” value (human mAChRM1 [2]) was “inactive”.
In the case of `CC(C)(O)c1cccc(-c2cc(F)c(CN3Cc4ncccc4C3=O)c(F)c2)c1` [Compound 43, 6-((3,5-difluoro-3′-(2-hydroxypropan-2-yl)-[1,1′-biphenyl]-4-yl)methyl)-6,7-dihydro-5H-pyrrolo[3,4-b]pyridin-5-one], the Emax (human mAChRM1 [1]) is reported as 64%, the EC50 (human mAChRM1 [1]) is reported as 3210 nM and the “Agonist Activity Human M1 EC50” value (human mAChRM1 [2]) is reported as “inactive”.
`CC(C)(O)c1ccc(-c2cc(F)c(CN3Cc4ncccc4C3=O)c(C(F)(F)F)c2)cc1` [Compound 44, 6-((3-fluoro-4′-(2-hydroxypropan-2-yl)-5-(trifluoromethyl)-[1,1′-biphenyl]-4-yl)methyl)-6,7-dihydro-5H-pyrrolo[3,4-b]pyridin-5-one] was tested, and the Emax (human mAChRM1 [1]) was 61%, the EC50 (human mAChRM1 [1]) was 5680 nM and the “Agonist Activity Human M1 EC50” value (human mAChRM1 [2]) was “inactive”.
With `CC(C)(O)c1ccc(-c2cc(F)c(CN3Cc4ncccc4C3=O)c(Cl)c2)cc1` [Compound 45, 6-((3-chloro-5-fluoro-4′-(2-hydroxypropan-2-yl)-[1,1′-biphenyl]-4-yl)methyl)-6,7-dihydro-5H-pyrrolo[3,4-b]pyridin-5-one] the Emax (human mAChRM1 [1]) was 66%, the EC50 (human mAChRM1 [1]) was 1030 nM and the “Agonist Activity Human M1 EC50” value (human mAChRM1 [2]) was “inactive”.
In the case of `CC(C)(O)c1ccc(-c2cc(Cl)c(CN3Cc4ncccc4C3=O)c(Cl)c2)cc1` [Compound 46, 6-((3,5-dichloro-4′-(2-hydroxypropan-2-yl)-[1,1′-biphenyl]-4-yl)methyl)-6,7-dihydro-5H-pyrrolo[3,4-b]pyridin-5-one], the Emax (human mAChRM1 [1]) is reported as 65%, the EC50 (human mAChRM1 [1]) is reported as 1440 nM and the “Agonist Activity Human M1 EC50” value (human mAChRM1 [2]) is reported as “inactive”.
`CC(C)(O)c1c(F)cc(-c2cc(F)c(CN3Cc4ncccc4C3=O)c(F)c2)cc1F` [Compound 47, 6-((3,3′,5,5′-tetrafluoro-4′-(2-hydroxypropan-2-yl)-[1,1′-biphenyl]-4-yl)methyl)-6,7-dihydro-5H-pyrrolo[3,4-b]pyridin-5-one] was tested, and the Emax (human mAChRM1 [1]) was 34%, the EC50 (human mAChRM1 [1]) was 1830 nM and the “Agonist Activity Human M1 EC50” value (human mAChRM1 [2]) was “inactive”.
`CC(C)(O)c1cc(F)c(-c2cc(F)c(CN3Cc4ncccc4C3=O)c(F)c2)cc1F` [Compound 48, 6-((2′,3,5,5′-tetrafluoro-4′-(2-hydroxypropan-2-yl)-[1,1′-biphenyl]-4-yl)methyl)-6,7-dihydro-5H-pyrrolo[3,4-b]pyridin-5-one] was tested, and the “PAM Activity Human M1 EC50” value (human mAChRM1 [1]) was “inactive” and the “Agonist Activity Human M1 EC50” value (human mAChRM1 [2]) was “inactive”.
In the case of `CC(C)(O)c1ccc(-c2cc(F)c(CN3Cc4ncccc4C3=O)cc2F)cc1` [Compound 49, 6-((2,5-difluoro-4′-(2-hydroxypropan-2-yl)-[1,1′-biphenyl]-4-yl)methyl)-6,7-dihydro-5H-pyrrolo[3,4-b]pyridin-5-one], the Emax (human mAChRM1 [1]) is reported as 66%, the EC50 (human mAChRM1 [1]) is reported as 1200 nM and the “Agonist Activity Human M1 EC50” value (human mAChRM1 [2]) is reported as “inactive”.
With `Cc1cc(-c2cc(C(C)(C)O)c3nn(C)cc3c2)cc(F)c1CN1Cc2ncccc2C1=O` [Compound 50, 6-(2-fluoro-4-(7-(2-hydroxypropan-2-yl)-2-methyl-2H-indazol-5-yl)-6-methylbenzyl)-6,7-dihydro-5H-pyrrolo[3,4-b]pyridin-5-one] the Emax (human mAChRM1 [1]) was 66%, the EC50 (human mAChRM1 [1]) was 784 nM and the “Agonist Activity Human M1 EC50” value (human mAChRM1 [2]) was “inactive”.
`Cn1nc2cc(C(C)(C)O)ccc2c1-c1cc(F)c(CN2Cc3ncccc3C2=O)c(F)c1` [Compound 51] was tested, and the Emax (human mAChRM1 [1]) was 30%, the EC50 (human mAChRM1 [1]) was at least 10000 nM and the “Agonist Activity Human M1 EC50” value (human mAChRM1 [2]) was “inactive”.
For `Cn1nc(-c2cc(F)c(CN3Cc4ncccc4C3=O)c(F)c2)c2ccc(C(C)(C)O)cc21` [Compound 52, 6-(2,6-difluoro-4-(6-(2-hydroxypropan-2-yl)-1-methyl-1H-indazol-3-yl)benzyl)-6,7-dihydro-5H-pyrrolo[3,4-b]pyridin-5-one], the Emax (human mAChRM1 [1]) was 58%, the EC50 (human mAChRM1 [1]) was 9570 nM and the “Agonist Activity Human M1 EC50” value (human mAChRM1 [2]) was “inactive”.
`Cc1cc(-c2ccc(C(C)(C)O)c3ncccc23)cc(F)c1CN1Cc2ncccc2C1=O` [Compound 53, 6-(2-fluoro-4-(8-(2-hydroxypropan-2-yl)quinolin-5-yl)-6-methylbenzyl)-6,7-dihydro-5H-pyrrolo[3,4-b]pyridin-5-one] was tested, and the Emax (human mAChRM1 [1]) was 53%, the EC50 (human mAChRM1 [1]) was 5870 nM and the “Agonist Activity Human M1 EC50” value (human mAChRM1 [2]) was “inactive”.
With `CCC(O)(CC)c1ccc(-c2cc(F)c(CN3Cc4ncccc4C3=O)c(F)c2)c2cn(C)nc12` [Compound 54, 6-(2,6-difluoro-4-(7-(3-hydroxypentan-3-yl)-2-methyl-2H-indazol-4-yl)benzyl)-6,7-dihydro-5H-pyrrolo[3,4-b]pyridin-5-one] the Emax (human mAChRM1 [1]) was 66%, the EC50 (human mAChRM1 [1]) was 2290 nM and the “Agonist Activity Human M1 EC50” value (human mAChRM1 [2]) was “inactive”.
